From patent publication US7572814B2, “3,5-dibenzoyl-4-phenyl-piperidine anti-cancer compounds” (Cytokinetics, Incorporated, priority 2005, dated 2009)

Experiments:
A549 cells = details: data provided by National Cancer Institute; cited from earlier work
[1] = test system: SKOV-3 human ovarian carcinoma; test: Tumor growth delay (TGD) study, established SKOV-3 tumors in athymic nude mice; assay type: in vivo; details: 30 mg/kg i.v. qod×5
Protocol: Certain of the chemical entities described herein were evaluated for in vivo activity against SKOV-3 human ovarian carcinoma in a tumor growth delay (TGD) study. The study utilized eight groups (n=8) of athymic nude mice bearing established (63-144 mm3) SKOV-3 tumors on Day 1, and included a vehicle-treated tumor growth control group and a reference group treated with paclitaxel (30 mg/kg i.v. qod×5). A first chemical entity was evaluated at doses of 300 or 150 mg/kg administered intraperitoneally (i.p.) once daily and at 150 mg/kg administered i.p. twice daily. Doses were administered on study days 1 to 5 and 8 to 12. Tumors were measured twice weekly during the 60-day study. Each animal was euthanized when its tumor reached the endpoint volume of 1500 mm3 or on Day 60, whichever came first, and the time to endpoint (TTE) was calculated for each mouse. Treatment outcome was determined from percent tumor growth delay (% TGD), defined as the percent increase in median TTE of treated versus control mice, with differences in TTE values deemed significant at P □0.05 using logrank analysis. The results presented were calculated based on data acquired through day 33 of the study. The median TTE of the untreated control group was 20.8 days.
A second chemical entity was similarly evaluated at 500 mg/kg administered i.p. once daily.

Row | Compound | GI50 (A549 cells) | percent tumor growth delay (% TGD) ([1]; data through day 33, statistically significant) | tumor growth delay (T-C) ([1]; maximum possible in this study, untreated control median TTE 20.8 days)
1 | COc1cccc2c1C(=O)c1c(O)c3c(c(O)c1C2=O)C[C@@](O)(C(=O)CO)C[C@@H]3O[C@H]1C[C@H](N)[C@H](O)[C@H](C)O1 [doxorubicin] | 0.063 µM | – | –
2 | NC(=O)NO [hydroxyurea] | 500 µM | – | –
3 | O=c1[nH]cc(F)c(=O)[nH]1 [5-fluorouracil] | 1 µM | – | –
4 | CC(=O)O[C@H]1C(=O)[C@@]2(C)[C@H]([C@H](OC(=O)c3ccccc3)[C@]3(O)C[C@H](OC(=O)[C@H](O)[C@@H](NC(=O)c4ccccc4)c4ccccc4)C(C)=C1C3(C)C)[C@]1(OC(C)=O)CO[C@@H]1C[C@@H]2O [paclitaxel] | 0.004 µM | 58% | 12.2 days
